{"source": "patent US11911483B2", "about": "“Modified self-immolating moieties for use in prodrugs and conjugates and methods of using and making” (BRISTOL-MYERS SQUIBB COMPANY, priority 2018, dated 2024)", "key": {"Cathepsin B": {"target": "Cathepsin B (Homo sapiens, UniProt P07858)", "assay": "Cathepsin B cleavage of linkers", "assay_type": "biochemical", "settings": "Cathepsin B buffer pH 5.5, 37° C.", "method": "The following procedure was used for testing the cathepsin B cleavage of linkers.\n7.5 μL of test compound (0.5 mM in DMSO) was transferred to individual tube containing 135 μl of Cathepsin B buffer (25 mM Sodium Acetate, 1 mM EDTA, 1 mM DTT, pH 5.5) and the digestion was started by the addition of 7.5 μl of the diluted Cathepsin B enzyme (Activated, 1.45 μM, 0.1 units). The samples were incubated at 37° C. for 24 h. After 24 h, a 20 μL aliquot was taken and quenched with 80 μL of 75:25:0.1 MeOH:acetonitrile:formic acid. Negative control was also included, without the addition of Cathepsin B. A control compound (structure below) was digested similarly and included as positive control. After quenching, all samples were held at −20° C. for 1 h and further centrifuged at 14,000 rpm for 5 min. The supernatant was transferred to a fresh tube and put in an UPLC autosampler for analysis, per the procedure of the preceding example.\nIn the above structure, “Tub” denotes a tubulysin analog (Cheng et al., U.S. Pat. No. 8,394,922 B2 (2013). The valine-citrulline (Val-Cit) dipeptide is a known substrate for cathepsin B."}, "[1]": {"assay": "Blood serum stability in human serum", "assay_type": "in vitro ADME", "settings": "37° C.", "method": "(§1) The samples were incubated at 37° C. for 0, 1, 2, 4, and 24 hours. After each of the time points, an aliquot of 20 μl was taken from the samples and quenched with 60 μl of 75:25:0.1 MeOH:acetonitrile:formic acid. After quenching, all samples were held at −20° C. for 1 hour and further centrifuged at 14000 rpm for 15 mins. The supernatant was transferred to a fresh vial and stored at −20° C. until analysis. Samples were analyzed using LC-MS/MS on Agilent 6530 Q-TOF mass spectrometer connected to an Agilent 1290 UPLC. 3 μL of samples were injected onto a Waters BEH C18 Column (2.1×50 mm, 1.7 μm) maintained at 60° C. […] The total run time is 9.5 min."}, "[2]": {"assay": "Blood serum stability in mouse serum", "assay_type": "in vitro ADME", "method": "as §1"}}}
{"compound": "CCCCOc1nc(N)c2nc(O)n(Cc3ccc(CN(CCCC)C(=O)OCc4ccc(NC(=O)[C@H](CCCNC(N)=O)NC(=O)[C@@H](NC(=O)[C@H](CCC(=O)O)NC(=O)CCCCCN5C(=O)C=CC5=O)C(C)C)cc4)cc3)c2n1", "note": "[Compound B]", "values": [{"measurement": "Cathepsin B Cleavage (% cleaved after 24 hours)", "setting": "Cathepsin B", "value": 100, "unit": "% cleaved"}, {"measurement": "Stability in Human Serum (% cleaved after 24 hours)", "setting": "[1]", "value": 0, "unit": "% cleaved"}, {"measurement": "Stability in Mouse Serum (% cleaved after 24 hours)", "setting": "[2]; mouse serum, 37° C., 24 hours", "value": 50, "unit": "% cleaved"}, {"measurement": "Stability in mouse serum (in words)", "setting": "[2]; text summary of Table C", "value": "unstable in mouse serum"}]}
